Data reported in paper PMC10530836, “Synthesis, Molecular Docking, and Biological Evaluation of Novel Anthranilic Acid Hybrid and Its Diamides as Antispasmodics” (International Journal of Molecular Sciences, 2023).

Columns and labels:
[1] = molecular target: T1, human albumin (Homo sapiens, UniProt P02768); assay: Inhibition of albumin denaturation (anti-inflammatory activity); assay type: biochemical; conditions: heat-induced denaturation
T1 construct: purchased Octapharma (IP) SPRL Albunorm 20
T1 sequence (P02768 25-609): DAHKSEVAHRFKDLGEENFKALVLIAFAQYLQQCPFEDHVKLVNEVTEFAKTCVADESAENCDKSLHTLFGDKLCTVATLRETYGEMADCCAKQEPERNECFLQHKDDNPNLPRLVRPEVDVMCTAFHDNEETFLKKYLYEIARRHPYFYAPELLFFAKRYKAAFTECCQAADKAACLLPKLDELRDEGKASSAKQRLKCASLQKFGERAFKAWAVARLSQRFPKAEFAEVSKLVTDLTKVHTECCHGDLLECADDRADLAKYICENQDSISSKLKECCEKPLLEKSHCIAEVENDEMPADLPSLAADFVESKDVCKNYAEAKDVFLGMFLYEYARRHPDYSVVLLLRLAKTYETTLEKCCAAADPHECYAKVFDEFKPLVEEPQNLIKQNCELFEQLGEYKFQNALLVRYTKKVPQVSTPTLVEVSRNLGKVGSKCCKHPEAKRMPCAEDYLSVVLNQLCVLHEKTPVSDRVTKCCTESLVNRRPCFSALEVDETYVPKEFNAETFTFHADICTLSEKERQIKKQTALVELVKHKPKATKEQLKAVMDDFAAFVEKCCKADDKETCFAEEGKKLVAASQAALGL
Experimental: Anti-denaturation assay was conducted as described by Kumari et al. with slight modifications. The reaction mixture consisted of 0.5 mL of 5% aqueous solution of human albumin (Albunorm 20, Octapharma (IP) SPRL, 1070 Anderlecht, Belgium) and 0.2 mL of the tested compound, dissolved in DMSO, at different concentrations (20–500 μg/mL). The samples were incubated at 37 °C for 15 min. After that, 2.5 mL phosphate-buffered saline (pH 6.3) was added to each tube and the samples were heated for 30 min to 80 °C and then cooled for 5 min. Turbidity was measured spectrophotometrically at 660 nm (Cary 60 UV-Vis, Agilent Technologies, Santa Clara, CA, USA). For the blank sample, a mixture of 2.5 mL buffer and 0.2 mL DMSO was used instead of the compounds, while the product control test lacked the compounds’ concentration having 0.5 mL serum albumin, and 2.5 mL buffer only. The percentage inhibition of protein denaturation was calculated as follows:Percentage of inhibition denaturation = (Absorbancecontrol − Absorbancesample) / Absorbancecontrol × 100
The control represents 100% protein denaturation.
Commercially available over-the-counter non-steroidal anti-inflammatory drugs diclofenac sodium and acetylsalicylic acid were used for comparison. Their anti-inflammatory effect was determined as a percentage of inhibition of albumin denaturation following the same protocol as for the novel compounds.

[2] = tested on: Staphylococcus aureus ATCC 25923; assay: Antimicrobial activity, agar well diffusion; assay type: cell-based; conditions: Dose 0.6 mg/disk, dwell = 6 mm
Excerpt: (§1) Twenty tested microorganisms including six Gram-positive bacteria (Bacillus subtilis ATCC 6633, Bacillus amyloliquefaciens 4BCL-YT, Staphylococcus aureus ATCC 25923, Listeria monocytogenes NBIMCC 8632, Enterococcus faecalis ATCC 19433), six Gram-negative bacteria (Salmonella enteritidis ATCC 13076, Klebsiella sp.—clinical isolate, Escherichia coli ATCC 25922, Proteus vulgaris ATCC 6380, Pseudomonas aeruginosa ATCC 9027), two yeasts (Candida albicans NBIMCC 74, Saccharomyces cerevisiae ATCC 9763), and six fungi (Aspergillus niger ATCC 1015, Aspergillus flavus, Penicillium sp., Rhizopus sp., Mucor sp.—plant isolates, Fusarium moniliforme ATCC 38932) from the collection of the Department of Microbiology at the University of Food Technologies—Plovdiv, Bulgaria, were selected for the antimicrobial activity test. The antimicrobial activity of the samples was determined by the agar well diffusion method. The tested bacteria B. subtilis and B. amyloliquefaciens were cultured on LBG agar at 30 °C. The test bacteria S. aureus, L. monocytogenes, E. faecalis, S. enteritidis, Klebsiella sp., E. coli, P. vulgaris, and P. aeruginosa were cultured on LBG agar at 37 °C for 24 h. The yeast C. albicans was cultured on MEA at 37 °C, while S. cerevisiae was cultured on MEA at 30 °C for 24 h. The fungi A. niger, A. flavus, Penicillium sp., Rhizopus sp., Mucor sp., and F. moniliforme were grown on MEA at 30 °C for 7 days or until sporulation. The inocula of the tested bacteria/yeasts was prepared by homogenization of a small amount of biomass in 5 mL of sterile 0.5% NaCl. The inocula of tested fungi were prepared by the addition of 5 mL of sterile 0.5% NaCl into the tubes. After stirring by vortex V-1 plus (Biosan), they were filtered and replaced in other tubes before use. The number of viable cells and fungal spores was determined using a bacterial counting chamber Thoma (Poly-Optik, GmbH, Bad Blankenburg, Germany). Their final concentrations were adjusted to 10^8 cfu/mL for bacterial/yeast cells and 10^5 cfu/mL for fungal spores and then inoculated in preliminarily melted and tempered at 45–48 °C LBG/MEA agar media. Next, the inoculated media were transferred in a quantity of 18 mL in sterile Petri plates (d = 90 mm) (Gosselin™, Hazebrouck, France) and allowed to harden. Then, six wells (d = 6 mm) per plate were cut, and triplicates of 60 μL of each extract were pipetted into the agar wells. The Petri plates were incubated in identical conditions. The antimicrobial activity was determined by measuring the diameter of the inhibition zones around the wells on the 24th and 48th h of incubation. Tested microorganisms with inhibition zones of 18 mm or more were considered sensitive; moderately sensitive were those in which the zones were from 12 to 18 mm; resistant were those in which the inhibition zones were up to 12 mm or completely missing.

[3] = tested on: Bacillus amyloliquefaciens 4BCL-YT; assay: Antimicrobial activity, agar well diffusion; assay type: cell-based; conditions: Dose 0.6 mg/disk, dwell = 6 mm
Excerpt: as §1

[4] = tested on: Klebsiella pneumoniae ATCC 13883; assay: Antimicrobial activity, agar well diffusion; assay type: cell-based; conditions: Dose 0.6 mg/disk, dwell = 6 mm

Row | Compound | IC50 [1] | Inhibition Zones [2] | Inhibition Zones [3] | Inhibition Zones [4]
1 | O=C(Nc1ccccc1C(=O)NCCc1cccc(Cl)c1)c1ccccc1 [Compound 4b, 2-benzamido-N-(3-chlorophenethyl)benzamide] | 1950 µM | 8 mm | 10 mm | –
2 | CC(=O)Nc1ccccc1C(=O)NCCc1cccc(Cl)c1 [Compound 4a, 2-acetamido-N-(3-chlorophenethyl)benzamide] | – | – | – | 14 mm
3 | Nc1ccccc1C(=O)NCCc1cccc(Cl)c1 [Compound 3, 2-amino-N-(3-chlorophenethyl)benzamide] | 2400 µM | 8 mm | 11 mm | 8 mm
